Laboratory results from patent US20250382373A1, “ANTI-EGFR/MET ANTIBODIES AND USES THEREOF” (Biocytogen Pharmaceuticals (Beijing) Co., Ltd., priority 2022, published 2025).

Key:
SNU-5 cells = test: Internalization (endocytosis) in SNU-5 cells, pHAb secondary antibody, flow cytometry; type: cell-based, human; details: 2.5 μg/ml, 1 hour
Method: Anti-EGFR antibodies (2.5 μg/ml) and pHAb-Goat Anti-Human IgG secondary antibody (Promega (Beijing) Biotech Co., Ltd., Cat #: G9845) were added to SNU-5 cells (ATCC, Reference No.: CRL-5973). After incubating at 37° C. and 5% CO2 for 1 hour, the cells were centrifuged and washed with FACS buffer. The mean fluorescence intensity (MFI) values were measured using a flow cytometer, and the endocytosis rates of the anti-EGFR antibodies were calculated.
Anti-MET antibodies ([…]) and pHAb-GoatAnti-Human IgG Antibody (Promega (Beijing) Biotech Co., Ltd., Cat #: G9845) were added to SUN-5 cells. After incubating for 1 hour, the cells were centrifuged and washed with FACS buffer. The MFI values were measured using a flow cytometer, and the endocytosis rates of the anti-MET antibodies were calculated.
The secondary antibody used in the experiment was: pHAb-AffiniPure Fab Fragment Goat Anti-Human IgG (Jackson Immuno Research, Cat #: 109-007-008).

human MET (hMET-His) [1] = target: T1, human MET (hMET-His) (Homo sapiens, UniProt P08581); test: SPR binding affinity of anti-MET antibodies to hMET-His
T1 construct: His; purchased ACROBiosystems Inc. MET-H5227
From the text: (§1) In another similar experiment, the binding affinity of anti-MET antibodies M-6D12, M-6E6, M-7D3, M-819, M-8E2 and M-8H10 to hMET-His, fasMET-His or dMET-His (His-tagged dog MET, Sino, Cat #:70008-D08H) was verified. Telisotuzumab analog was used as a positive control.

monkey MET (fasMET-His) [2] = test: SPR binding affinity of anti-MET antibodies to fasMET-His
From the text: as §1

dog MET (dMET-His) = target: T2, dog MET (dMET-His) (Canis lupus familiaris, UniProt Q75ZY9); test: SPR binding affinity of anti-MET antibodies to dMET-His
T2 construct: His; purchased Sino 70008-D08H
From the text: as §1

HCC827 cells = test: Internalization of antibodies targeting EGFR and/or MET in HCC827 cells; type: cell-based, human; details: HCC827, 1 hour
Method: (§2) Anti-EGFR antibodies, anti-MET antibodies, or anti-EGFR/MET bispecific antibodies, together with the pHAb-Goat anti-human IgG secondary antibody were added to NCI-H1975 cells (ATCC, Reference No.: CRL-5908), HCC827 cells (ATCC, Reference No.: CRL-2868) and NCI-H292 (ATCC, Reference No.: CRL-1848) cells, respectively, and incubated for 1 hour. The cells were centrifuged and washed with FACS buffer. MFI was measured using a flow cytometer. Endocytosis rates of antibodies were calculated. For isotype control (ISO), an antibody targeting an irrelevant target protein was used.

NCI-H292 cells = test: Internalization of antibodies targeting EGFR and/or MET in NCI-H292 cells; type: cell-based, human; details: NCI-H292, 1 hour
Method: as §2

[3] = target: monkey EGFR (fasEGFR-His); test: SPR binding activity of anti-EGFR/MET bispecific antibodies to fasEGFR-His; details: Table 15
From the text: (§3) Dissociation was monitored for 400 seconds.

human MET (hMET-His) [4] = target: T1, human MET (hMET-His); test: SPR binding activity of anti-EGFR/MET bispecific antibodies to hMET-His; details: Table 15
From the text: as §3

monkey MET (fasMET-His) [5] = test: SPR binding activity of anti-EGFR/MET bispecific antibodies to fasMET-His; details: Table 15
From the text: as §3

human EGFR (hEGFR-His) = human EGFR (hEGFR-His) (Homo sapiens, UniProt P00533); test: SPR binding activity of anti-EGFR/MET bispecific antibodies to hEGFR-His; details: Table 15

Chain of monkey MET (fasMET-His) (as listed by the source): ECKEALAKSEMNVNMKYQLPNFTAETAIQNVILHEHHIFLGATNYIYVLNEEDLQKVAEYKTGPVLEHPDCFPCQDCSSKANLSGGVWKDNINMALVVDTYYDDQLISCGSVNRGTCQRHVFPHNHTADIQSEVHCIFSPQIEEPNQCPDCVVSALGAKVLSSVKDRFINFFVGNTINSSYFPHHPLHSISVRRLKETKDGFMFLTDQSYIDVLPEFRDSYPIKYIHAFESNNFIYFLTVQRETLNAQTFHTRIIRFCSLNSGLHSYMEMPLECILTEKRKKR
Chain of monkey MET (fasMET-His) (as listed by the source): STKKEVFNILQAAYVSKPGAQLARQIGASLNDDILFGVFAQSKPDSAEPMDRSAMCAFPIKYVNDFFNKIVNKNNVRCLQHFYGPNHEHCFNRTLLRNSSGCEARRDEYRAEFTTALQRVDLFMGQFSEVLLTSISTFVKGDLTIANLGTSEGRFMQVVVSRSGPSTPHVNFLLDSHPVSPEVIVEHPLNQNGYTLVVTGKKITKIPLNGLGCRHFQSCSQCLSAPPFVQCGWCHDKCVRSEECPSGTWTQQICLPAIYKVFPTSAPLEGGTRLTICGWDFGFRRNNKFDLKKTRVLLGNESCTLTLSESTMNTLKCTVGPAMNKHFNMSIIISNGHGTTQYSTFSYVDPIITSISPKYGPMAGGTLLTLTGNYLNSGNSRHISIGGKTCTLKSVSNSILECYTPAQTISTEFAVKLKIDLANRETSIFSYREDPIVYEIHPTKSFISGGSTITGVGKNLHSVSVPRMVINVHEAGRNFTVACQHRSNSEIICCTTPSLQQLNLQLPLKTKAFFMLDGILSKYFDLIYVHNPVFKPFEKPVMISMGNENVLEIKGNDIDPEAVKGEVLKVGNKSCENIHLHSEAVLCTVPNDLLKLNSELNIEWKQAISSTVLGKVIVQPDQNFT
T1 sequence (P08581 25-932 limits assumed): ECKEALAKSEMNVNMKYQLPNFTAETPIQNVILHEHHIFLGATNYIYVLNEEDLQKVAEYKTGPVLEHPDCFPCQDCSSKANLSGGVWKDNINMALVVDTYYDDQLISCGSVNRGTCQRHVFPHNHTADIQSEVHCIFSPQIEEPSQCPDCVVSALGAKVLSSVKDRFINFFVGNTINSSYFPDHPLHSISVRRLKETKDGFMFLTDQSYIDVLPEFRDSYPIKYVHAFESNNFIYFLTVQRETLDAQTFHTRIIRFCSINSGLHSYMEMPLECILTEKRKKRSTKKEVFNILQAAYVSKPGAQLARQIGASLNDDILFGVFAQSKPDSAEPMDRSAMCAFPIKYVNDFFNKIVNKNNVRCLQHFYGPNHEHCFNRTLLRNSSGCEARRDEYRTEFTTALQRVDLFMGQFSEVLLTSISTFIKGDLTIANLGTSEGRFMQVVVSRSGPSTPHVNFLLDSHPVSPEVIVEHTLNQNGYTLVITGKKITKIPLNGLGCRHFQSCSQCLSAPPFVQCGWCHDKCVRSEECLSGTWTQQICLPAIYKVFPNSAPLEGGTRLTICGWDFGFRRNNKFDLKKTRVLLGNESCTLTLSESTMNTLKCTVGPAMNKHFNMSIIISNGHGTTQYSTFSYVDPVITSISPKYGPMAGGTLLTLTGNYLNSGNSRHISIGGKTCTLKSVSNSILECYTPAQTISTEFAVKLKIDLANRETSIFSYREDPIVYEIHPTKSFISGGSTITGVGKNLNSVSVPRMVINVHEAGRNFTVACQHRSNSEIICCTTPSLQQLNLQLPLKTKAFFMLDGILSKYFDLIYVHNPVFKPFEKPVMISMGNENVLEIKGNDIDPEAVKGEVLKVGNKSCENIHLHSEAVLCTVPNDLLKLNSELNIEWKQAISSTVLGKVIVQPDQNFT
T2 sequence (Q75ZY9 25-933 limits assumed): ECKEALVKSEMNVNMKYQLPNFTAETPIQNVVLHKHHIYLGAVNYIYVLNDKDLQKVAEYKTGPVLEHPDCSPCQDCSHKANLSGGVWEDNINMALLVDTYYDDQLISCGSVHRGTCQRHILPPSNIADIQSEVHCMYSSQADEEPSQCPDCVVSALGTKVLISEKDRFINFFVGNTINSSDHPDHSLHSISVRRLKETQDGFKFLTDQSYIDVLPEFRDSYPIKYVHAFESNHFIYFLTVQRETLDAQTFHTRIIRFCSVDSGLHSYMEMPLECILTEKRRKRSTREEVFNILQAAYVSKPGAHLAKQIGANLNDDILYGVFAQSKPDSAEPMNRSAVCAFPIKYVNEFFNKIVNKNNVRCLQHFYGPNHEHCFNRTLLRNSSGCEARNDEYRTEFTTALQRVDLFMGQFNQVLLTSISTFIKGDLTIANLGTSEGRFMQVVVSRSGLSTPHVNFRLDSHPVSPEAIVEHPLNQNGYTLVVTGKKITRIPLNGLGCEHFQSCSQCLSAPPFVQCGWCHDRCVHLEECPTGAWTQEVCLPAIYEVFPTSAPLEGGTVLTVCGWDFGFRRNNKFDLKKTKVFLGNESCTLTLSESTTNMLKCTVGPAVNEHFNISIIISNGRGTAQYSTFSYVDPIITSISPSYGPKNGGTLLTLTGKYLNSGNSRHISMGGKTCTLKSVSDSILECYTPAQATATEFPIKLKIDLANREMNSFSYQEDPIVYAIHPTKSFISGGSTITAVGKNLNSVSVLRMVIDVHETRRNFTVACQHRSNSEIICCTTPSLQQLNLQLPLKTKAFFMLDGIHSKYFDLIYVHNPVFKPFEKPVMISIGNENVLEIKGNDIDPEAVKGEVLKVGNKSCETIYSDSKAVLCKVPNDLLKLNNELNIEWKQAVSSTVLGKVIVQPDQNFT

Telisotuzumab analog: analog of Telisotuzumab, humanized IgG1 monoclonal antibody targeting MET; SEQ ID NO: 75 and 76 [reference compound]
MFI (SNU-5 cells): 21700
Percentage of Positive (endocytosis) (SNU-5 cells): 36.9%
binding to human MET (human MET (hMET-His) [1]): showed binding affinity
binding to monkey MET (monkey MET (fasMET-His) [2]): showed binding affinity
binding to dog MET (dog MET (dMET-His)): no binding affinity
MFI (HCC827 cells): 10344
Positive Population (HCC827 cells): 0.63%
MFI (NCI-H292 cells): 6969
Positive Population (NCI-H292 cells): 2.32%
KD [3]: No binding
koff (human MET (hMET-His) [4]): 0.0001 s⁻¹
kon (human MET (hMET-His) [4]): 103000 M⁻¹ s⁻¹
koff (monkey MET (fasMET-His) [5]): 9.41e-05 s⁻¹
kon (monkey MET (fasMET-His) [5]): 62600 M⁻¹ s⁻¹
KD (human EGFR (hEGFR-His)): No binding
